Data: US20120184504A1, “"The Use of a PAR-1 Antagonist in Combination with a P2Y12 ADP Receptor Antagonist for Inhibition of Thrombosis"” (priority 2009, published 2012)
Values belong to the compound of their own block, whether it stands above or below them.

What was measured:
[1] = system: platelet-dependent thrombus formation (cyclic flow reductions); experiment: Folts model of thrombosis: cyclic flow reductions (CFRs) in the carotid artery; format: in vivo, cynomolgus monkeys; conditions: for EC50 (dose regimen needed for 50% reduction in CFRs): from dose-response curve, Inhibitory Effect Emax model
Source text: The procedures used in this study are similar to the acute artery occlusion model developed by Folts and others. (Cook J J, Sitko G R, Bednar B, Condra C, Mellott M J, Feng D M, Nutt R F, Shafer J A, Gould R J, Connolly T M. An antibody against the exosite of the cloned thrombin receptor inhibits experimental arterial thrombosis in the African green monkey. Circulation. 1995; 91:2961-2971. Folts J. An in vivo model of experimental arterial stenosis, intimal damage, and periodic thrombosis. Circulation. 1991; 83(Suppl):IV3-IV14. Mousa S A, DeGrado W F, Mu D X, Kapil R P, Lucchesi B R, Reilly T M. Oral antiplatelet, antithrombotic efficacy of DMP 728, a novel platelet GPIIb/IIIa antagonist. Circulation. 1996; 93:537-543. Wu D, Vanhoorelbeke K, Cauwenberghs N, Meiring M, Depraetere H, Kotze H F, Deckmyn H. Inhibition of the von Willebrand (VWF)-collagen interaction by an antihuman VWF monoclonal antibody results in abolition of in vivo arterial platelet thrombus formation in baboons. Blood. 2002; 99:3623-3628).
Cynomolgus monkeys were sedated with ketamine HCl (10 mg/kg, IM) followed by anesthetization with sodium pentobarbital 20 mg/kg i.v. bolus and an infusion of 5 mg/kg/h i.v. for the duration of the experiment. Body temperature was maintained at 37°-39° C., and fluids infused were warmed to body temperature. The right carotid artery was exposed and dissected free of surrounding tissue, and a transonic flow probe of appropriate size was placed around the vessel. A Lexan constrictor (5 mm length) was placed onto the carotid artery. The constrictor was sized to abolish reactive hyperemia and to reduce mean carotid blood flow by no more than 50%-60%. Mechanical damage to the endothelium was induced in the constricted segment of the artery. Cyclic flow reductions due to platelet-dependent thrombus formation occurred shortly after placement of the constrictor over the region of endothelial damage. These gradual declines in carotid blood flow were occasionally interrupted spontaneously, but frequently required manual restoration by gently shaking the vessel. Flow reductions would typically return in 3-4 minutes. CFR frequency was calculated as the number of such cycles (CFRs) over a 30-minute period. On the basis of pilot studies, CFRs were evaluated in a maximum of four consecutive 30-minute collection periods, and mechanically mediated endothelial injury was performed at 30-minute intervals to ensure exposure of the thrombogenic endothelium.
Animals instrumented to produce CFRs were administered SCH 602539, cangrelor, or a combination of SCH 602539 and cangrelor. The dosing regimens of SCH 602539 were selected to provide a broad range of inhibition of platelet aggregation induced by 1 μM thrombin receptor agonist peptide (TRAP), whereas the doses of cangrelor were selected to achieve 50%-60% inhibition of platelet aggregation induced by 10 μM ADP (the degree of inhibition obtained with clopidogrel). Group 1 received drug vehicle only (20% hydroxypropyl betacyclodextran or saline, 2 mL i.v.). Group 2 received SCH 602539 dissolved in 20% hydroxypropyl betacyclodextran administered as sequential i.v. boluses of 0.1, 0.3, or 1 mg/kg, at 30-minute intervals. Group 3 received cangrelor dissolved in saline and administered as an intravenous infusion of 0.1, 0.2, or 0.3 μg/kg/min for 30 minutes each. Group 4 received a combination of SCH 602539 bolus plus cangrelor infusion (at respective doses of: 1) 0.05 mg/kg+0.05 μg/kg/min; 2) 0.1 mg/kg+0.1 μg/kg/min; and 3) 0.15 mg/kg+0.1 μg/kg/min. The three dose regimens within each group were administered sequentially over the consecutive 30-minute periods coinciding with the re-induction of endothelial injury. […]

[2] = system: platelet aggregation induced by TRAP (3 μM); experiment: Ex vivo whole blood platelet aggregation induced by TRAP; format: in vivo, cynomolgus monkeys
Procedure: Animals instrumented to produce CFRs were administered SCH 602539, cangrelor, or a combination of SCH 602539 and cangrelor. The dosing regimens of SCH 602539 were selected to provide a broad range of inhibition of platelet aggregation induced by 1 μM thrombin receptor agonist peptide (TRAP), whereas the doses of cangrelor were selected to achieve 50%-60% inhibition of platelet aggregation induced by 10 μM ADP (the degree of inhibition obtained with clopidogrel). Group 1 received drug vehicle only (20% hydroxypropyl betacyclodextran or saline, 2 mL i.v.). Group 2 received SCH 602539 dissolved in 20% hydroxypropyl betacyclodextran administered as sequential i.v. boluses of 0.1, 0.3, or 1 mg/kg, at 30-minute intervals. Group 3 received cangrelor dissolved in saline and administered as an intravenous infusion of 0.1, 0.2, or 0.3 μg/kg/min for 30 minutes each. Group 4 received a combination of SCH 602539 bolus plus cangrelor infusion (at respective doses of: 1) 0.05 mg/kg+0.05 μg/kg/min; 2) 0.1 mg/kg+0.1 μg/kg/min; and 3) 0.15 mg/kg+0.1 μg/kg/min. The three dose regimens within each group were administered sequentially over the consecutive 30-minute periods coinciding with the re-induction of endothelial injury. Study drug or vehicle was administered after stable CFRs were achieved, and upon the completion of a 30-minute baseline CFR collection period, drug(s) or vehicle were administered incrementally (every 30 minutes) either as a bolus (SCH 602539) or as an infusion (cangrelor), and their effects on CFRs were monitored in the next three 30-minute observation periods. Blood samples (3 mL) were collected from the femoral arterial catheter at the end of each 30-minute observation period for assessment of ex vivo platelet aggregation and coagulation parameters.
Platelet aggregation studies were performed ex viva on blood samples obtained from the monkeys subjected to the Folts model, using a ChronoLog whole blood aggregometer (Model 540VS, Havertown, Pa.). Briefly, 0.5 mL of blood was incubated with 0.5 mL of normal saline at 37° C. in a cuvette containing a stir bar for 2 minutes. Platelet agonists used in this study included TRAP (3 μM), ADP (10 μM), the thromboxane A2 mimetic U46619 (10 μM), and collagen (3 μg/mL). Platelet aggregation was monitored for 5 minutes following the addition of the agonist. The peak aggregation response was recorded in ohms. In addition, standard coagulation parameters, including prothrombin time (PT), activated partial thromboplastin time (APTT), and activated clotting time (ACT), were assessed.

SMILES: CCOC(=O)N[C@@H]1CC[C@@H]2[C@@H](C1)C[C@H]1C(=O)O[C@H](C)[C@H]1[C@H]2/C=C/c1ccc(-c2ccccn2)cn1 [SCH 602539]
CFR frequency reduced from baseline ([1]; SCH 602539 0.1 mg/kg i.v. bolus): approximately 50% | CFRs ([1]; SCH 602539 0.1 mg/kg i.v. bolus, CFRs per 30-minute period, baseline 8.7 + 0.6): 4.3 + 1.3 | animals in which CFRs were completely abolished ([1]; SCH 602539 0.3 mg/kg): 4 of 6 | CFR frequency reduced from baseline ([1]; SCH 602539 0.3 mg/kg i.v. bolus, P<0.05 versus vehicle): > 80% | CFRs ([1]; SCH 602539 0.3 mg/kg i.v. bolus, per 30-minute period, baseline 8.7 + 0.6): 1.7 + 1.2 | animals in which CFRs were completely abolished ([1]; SCH 602539 1.0 mg/kg): 4 of 6 | CFR frequency reduced from baseline ([1]; SCH 602539 1.0 mg/kg i.v. bolus, P<0.05 versus vehicle): > 80% | CFRs ([1]; SCH 602539 1.0 mg/kg i.v. bolus, per 30-minute period, baseline 8.7 + 0.6): 1.8 + 1.3 | EC50 (dose regimen needed for 50% reduction in CFRs) ([1]; i.v. bolus): 0.10 ± 0.042 mg/kg | Aggregation, TRAP ([2]; SCH 602539 0.1 mg/kg, baseline 14 ± 3): 9 ± 4 ohms | Aggregation, TRAP ([2]; SCH 602539 0.3 mg/kg, baseline 14 ± 3): 2 ± 2 ohms | inhibition of ex vivo platelet aggregation induced by 3 μM TRAP ([2]; two highest doses of SCH 602539 (0.3 mg/kg and 1 mg/kg)): > 80%

EC50 (dose regimen needed for 50% reduction in CFRs) ([1]; i.v. infusion): 0.099 ± 0.039 µg/kg/min
SMILES: CSCCNc1nc(SCCC(F)(F)F)nc2c1ncn2[C@@H]1O[C@H](COP(=O)(O)OP(=O)(O)C(Cl)(Cl)P(=O)(O)O)[C@@H](O)[C@H]1O [Cangrelor]
CFRs ([1]; Cangrelor 0.1 μg/kg/min i.v. infusion 30 min, per 30-minute period, baseline 9.5 + 0.9): 5.7 + 1.5 | CFRs ([1]; Cangrelor 0.2 μg/kg/min i.v. infusion 30 min, baseline 9.5 + 0.9): 3.2 + 1.7 | CFRs ([1]; Cangrelor 0.3 μg/kg/min i.v. infusion 30 min, baseline 9.5 + 0.9): 1.2 + 1.3 | CFR frequency reduced from baseline ([1]; cangrelor 0.1 μg/kg/min 30-minute infusion): approximately 40% | CFR frequency reduced from baseline ([1]; cangrelor 0.2 μg/kg/min 30-minute infusion, significant versus vehicle): ~70% | CFR frequency reduced from baseline ([1]; cangrelor 0.3 μg/kg/min 30-minute infusion, significant versus vehicle): ~90% | animals in which CFRs were completely prevented ([1]; cangrelor highest dose (0.3 μg/kg/min)): 5/6 | animals in which CFRs were completely prevented ([1]; cangrelor intermediate dose (0.2 μg/kg/min)): 3/6 | complete suppression of CFRs ([1]; cangrelor lowest dose (0.1 μg/kg/min)): No complete suppression | Aggregation, TRAP ([2]; Cangrelor 0.1 μg/kg/min, baseline 13 ± 3): 12 ± 3 ohms | Aggregation, TRAP ([2]; Cangrelor 0.2 μg/kg/min, baseline 13 ± 3): 12 ± 3 ohms | Aggregation, TRAP ([2]; Cangrelor 0.3 μg/kg/min, baseline 13 ± 3): 9 ± 3 ohms | effect on aggregation stimulated by 3 μM TRAP ([2]; cangrelor 0.2 and 0.3 μg/kg/min): did not interfere
